Assay results from ChEMBL document CHEMBL5154691, “Discovery of novel verinurad analogs as dual inhibitors of URAT1 and GLUT9 with improved Druggability for the treatment of hyperuricemia” (Eur J Med Chem, 2022).

Tests used:
[1] = biological target: T1, Solute carrier family 22 member 12 (Homo sapiens, UniProt Q96S37); assay: Inhibition of URAT1 (unknown origin)-mediated 14C-uric acid uptake expressed in HEK293 cells using 14C-uric acid as substrate preincubated for 30 mins followed by substrate addition and measured after 15 mins by liquid scintillation counting analysis; type: cell-based
T1 sequence (Q96S37 whole entry): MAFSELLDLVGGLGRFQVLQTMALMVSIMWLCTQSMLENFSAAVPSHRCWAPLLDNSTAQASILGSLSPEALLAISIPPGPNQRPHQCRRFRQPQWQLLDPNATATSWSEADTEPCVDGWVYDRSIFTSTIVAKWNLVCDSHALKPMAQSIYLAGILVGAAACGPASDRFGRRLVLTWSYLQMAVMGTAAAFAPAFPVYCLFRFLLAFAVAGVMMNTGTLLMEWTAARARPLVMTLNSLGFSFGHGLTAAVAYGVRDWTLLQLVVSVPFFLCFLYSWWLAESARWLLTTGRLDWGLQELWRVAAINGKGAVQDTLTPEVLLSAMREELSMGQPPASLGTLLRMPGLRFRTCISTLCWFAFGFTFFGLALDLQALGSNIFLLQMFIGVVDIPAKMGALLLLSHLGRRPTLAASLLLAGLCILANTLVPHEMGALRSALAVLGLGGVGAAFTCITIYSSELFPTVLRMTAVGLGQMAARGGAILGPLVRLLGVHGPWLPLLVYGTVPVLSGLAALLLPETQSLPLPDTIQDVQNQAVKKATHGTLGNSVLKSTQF

[2] = biological target: T2, Broad substrate specificity ATP-binding cassette transporter ABCG2 (Homo sapiens, UniProt Q9UNQ0); assay: Inhibition of ABCG2 (unknown origin) expressed in HEK293 cells membrane vesicles assessed as inhibition of ATP-induced 14C-uric acid uptake preincubated for 15 mins followed by incubation with ATP and substrate for 5 mins by liquid scintillation counting analysis; type: toxicity, cell membranes, Membrane vesicle
T2 sequence (Q9UNQ0 whole entry): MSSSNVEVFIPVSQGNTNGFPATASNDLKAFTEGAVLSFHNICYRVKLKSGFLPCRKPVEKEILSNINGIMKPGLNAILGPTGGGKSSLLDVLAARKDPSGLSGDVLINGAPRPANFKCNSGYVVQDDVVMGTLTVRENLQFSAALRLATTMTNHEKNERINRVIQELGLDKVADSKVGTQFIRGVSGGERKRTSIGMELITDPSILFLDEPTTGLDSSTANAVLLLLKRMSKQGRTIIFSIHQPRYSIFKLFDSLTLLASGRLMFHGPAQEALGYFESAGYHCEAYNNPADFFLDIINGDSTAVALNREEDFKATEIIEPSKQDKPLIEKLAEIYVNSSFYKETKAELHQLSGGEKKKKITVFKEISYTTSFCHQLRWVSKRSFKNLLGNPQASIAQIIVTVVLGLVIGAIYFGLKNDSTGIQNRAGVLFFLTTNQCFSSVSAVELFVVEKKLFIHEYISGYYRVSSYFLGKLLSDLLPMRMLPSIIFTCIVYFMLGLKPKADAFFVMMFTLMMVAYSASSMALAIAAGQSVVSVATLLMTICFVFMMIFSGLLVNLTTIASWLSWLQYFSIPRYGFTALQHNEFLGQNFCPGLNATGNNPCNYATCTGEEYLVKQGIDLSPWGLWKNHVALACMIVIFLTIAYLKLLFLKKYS

[3] = biological target: T3, Solute carrier family 2, facilitated glucose transporter member 9 (Homo sapiens) (UniProt Q9NRM0); assay: Inhibition of GLUT9 (unknown origin) expressed in HEK293T cells assessed as inhibition of uric acid-induced current at 10 uM by whole cell patch clamp technique; type: cell-based
T3 sequence (whole entry): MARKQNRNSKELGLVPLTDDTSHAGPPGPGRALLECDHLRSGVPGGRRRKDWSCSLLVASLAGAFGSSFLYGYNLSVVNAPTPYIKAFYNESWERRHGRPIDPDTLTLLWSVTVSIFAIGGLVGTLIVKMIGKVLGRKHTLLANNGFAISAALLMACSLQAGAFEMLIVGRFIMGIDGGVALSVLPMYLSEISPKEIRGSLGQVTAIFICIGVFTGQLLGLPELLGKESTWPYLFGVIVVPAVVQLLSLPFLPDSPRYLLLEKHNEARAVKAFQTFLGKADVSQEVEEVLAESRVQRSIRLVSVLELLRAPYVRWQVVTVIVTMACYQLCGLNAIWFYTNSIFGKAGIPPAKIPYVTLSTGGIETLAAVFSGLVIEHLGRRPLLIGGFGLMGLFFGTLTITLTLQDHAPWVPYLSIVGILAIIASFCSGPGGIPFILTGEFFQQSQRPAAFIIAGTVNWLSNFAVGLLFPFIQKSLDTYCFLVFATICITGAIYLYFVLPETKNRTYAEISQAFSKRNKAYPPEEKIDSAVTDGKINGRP

[4] = biological target: T4, Solute carrier family 22 member 6 (Homo sapiens, UniProt Q4U2R8); assay: Inhibition of OAT1 (unknown origin) expressed in HEK293 cells assessed as inhibition of 6-CFL uptake preincubated for 30 mins followed by incubation with 6-CFL and measured after 15 mins by fluorescence based analysis; type: toxicity, cell-based
T4 sequence (Q4U2R8 whole entry): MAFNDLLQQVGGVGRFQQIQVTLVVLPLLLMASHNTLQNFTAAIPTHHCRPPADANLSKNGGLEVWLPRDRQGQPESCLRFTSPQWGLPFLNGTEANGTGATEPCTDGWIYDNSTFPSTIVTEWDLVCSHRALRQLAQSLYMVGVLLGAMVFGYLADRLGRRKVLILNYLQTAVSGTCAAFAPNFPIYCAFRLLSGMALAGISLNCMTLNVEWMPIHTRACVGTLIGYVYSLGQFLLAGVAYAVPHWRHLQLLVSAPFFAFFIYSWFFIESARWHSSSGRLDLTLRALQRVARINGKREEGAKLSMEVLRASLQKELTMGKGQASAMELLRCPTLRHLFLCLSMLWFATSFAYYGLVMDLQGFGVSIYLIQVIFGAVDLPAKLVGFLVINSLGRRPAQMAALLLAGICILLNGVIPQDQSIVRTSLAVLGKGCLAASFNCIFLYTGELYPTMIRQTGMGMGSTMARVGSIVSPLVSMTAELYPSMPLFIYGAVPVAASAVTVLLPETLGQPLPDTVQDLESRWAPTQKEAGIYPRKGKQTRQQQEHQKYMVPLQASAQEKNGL

| SMILES | IC50 [1] [µM] | also measured |
| --- | --- | --- |
| CN(c1cnccc1SCCCCCCC(=O)O)c1ccc(C#N)c2ccccc12 | 4.64 |  |
| CN(c1cnccc1SCc1cccc(C(=O)O)c1)c1ccc(C#N)c2ccccc12 | 3.57 |  |
| N#Cc1ccc(Oc2cnccc2Sc2cccc([N+](=O)[O-])c2CC(=O)O)c2ccccc12 | 10.5 |  |
| CC(C)(Sc1ccncc1Oc1ccc(C#N)c2ccccc12)C(=O)O | 5.21 |  |
| N#Cc1ccc(Nc2cnccc2SCc2ccc(C(=O)O)cc2)c2ccccc12 | 2.55 |  |
| COc1ccc(Sc2ccncc2Oc2ccc(C#N)c3ccccc23)c(CC(=O)O)c1 | 14.2 |  |
| N#Cc1ccc(Nc2cnccc2SCCCCCC(=O)O)c2ccccc12 | 4.24 |  |
| CN(c1cnccc1SCCCCCC(=O)O)c1ccc(C#N)c2ccccc12 | 3.76 |  |
| CN(c1cnccc1SCc1ccc(C(=O)O)cc1)c1ccc(C#N)c2ccccc12 | 6.25 |  |
| COc1cc(C(=O)O)ccc1CSc1ccncc1N(C)c1ccc(C#N)c2ccccc12 | 0.46 | IC50 [2]: 34.8 µM; inhibition [3]: 23.1%; IC50 [4]: 25.5 µM |
| CN(c1cnccc1SCCCC(=O)O)c1ccc(C#N)c2ccccc12 | 2.58 |  |
| N#Cc1ccc(Nc2cnccc2SCc2ccc(-c3ccccc3C(=O)O)cc2)c2ccccc12 | 4.68 |  |
| N#Cc1ccc(Oc2cnccc2SCCCCCCC(=O)O)c2ccccc12 | 3.78 |  |
| N#Cc1ccc(Oc2cnccc2Sc2ccc(Br)cc2CC(=O)O)c2ccccc12 | 8.05 |  |
| COc1cc(C(=O)O)ccc1CSc1ccncc1Oc1ccc(C#N)c2ccccc12 | 16.4 |  |
| N#Cc1ccc(Nc2cnccc2SCc2cccc(C(=O)O)c2)c2ccccc12 | 1.96 |  |
| N#Cc1ccc(Nc2cnccc2SCCCCCCC(=O)O)c2ccccc12 | 5.75 |  |
| N#Cc1ccc(Oc2cnccc2SCc2ccccc2C(=O)O)c2ccccc12 | 6.86 |  |

| SMILES | IC50 [1] [µM] | also measured |
| --- | --- | --- |
| CN(c1cnccc1SC(C)(C)C(=O)O)c1ccc(C#N)c2ccccc12 | 5.36 |  |
| N#Cc1ccc(Oc2cnccc2SCc2ccc(-c3ccccc3C(=O)O)cc2)c2ccccc12 | 15.1 |  |
| N#Cc1ccc(Oc2cnccc2SCCCC(=O)O)c2ccccc12 | 1.23 | IC50 [2]: 27.9 µM; inhibition [3]: 15.2%; IC50 [4]: 41.3 µM |
| N#Cc1ccc(Oc2cnccc2SCc2cccc(C(=O)O)c2)c2ccccc12 | 6.58 |  |
| N#Cc1ccc(Nc2cnccc2SCCCCC(=O)O)c2ccccc12 | 2.28 |  |
| COc1ccc(Sc2ccncc2Nc2ccc(C#N)c3ccccc23)c(CC(=O)O)c1 | 4.25 |  |
| N#Cc1ccc(Oc2cnccc2SCCCCCC(=O)O)c2ccccc12 | 4.74 |  |
| N#Cc1ccc(Nc2cnccc2Sc2ccc(Br)cc2CC(=O)O)c2ccccc12 | 4.12 |  |
| N#Cc1ccc(Oc2cnccc2SCc2ccc(C(=O)O)cc2)c2ccccc12 | 10.2 |  |
| CN(c1cnccc1SCc1ccccc1C(=O)O)c1ccc(C#N)c2ccccc12 | 4.44 |  |
| COc1cc(C(=O)O)ccc1CSc1ccncc1Nc1ccc(C#N)c2ccccc12 | 1.66 |  |
| N#Cc1ccc(Oc2cnccc2SCC(=O)O)c2ccccc12 | 6.97 |  |
| N#Cc1ccc(Nc2cnccc2Sc2cccc([N+](=O)[O-])c2CC(=O)O)c2ccccc12 | 3.44 |  |
| N#Cc1ccc(Oc2cnccc2SCCCCC(=O)O)c2ccccc12 | 4.22 |  |
| CN(c1cnccc1SCc1ccc(-c2ccccc2C(=O)O)cc1)c1ccc(C#N)c2ccccc12 | 4.57 |  |
| N#Cc1ccc(Nc2cnccc2SCCCC(=O)O)c2ccccc12 | 2.78 |  |
| CN(c1cnccc1SCCCCC(=O)O)c1ccc(C#N)c2ccccc12 | 3.58 |  |
